# Measurements published in paper PMC4575187 (PLoS ONE, 2015).
# Ends that are not written are not given here.
# Experiments:
# [1] = test system: influenza A/Aichi/2/68 (H3N2); conditions: /Aichi/2/68, 48 h
# [2] = test system: MDCK cells; conditions: 4 h
# [3] = test system: H5N1 pseudovirus (HA and NA of A/Thailand/Kan353/2004)
# [4] = test system: H5N1 pseudovirus; assay type: cell-based, influenza A virus
# [5] = test system: MDCK cells; conditions: previous work; cited from earlier work
# [6] = test system: H5 antigen; experiment: Hemagglutination inhibition (HI) assay; conditions: HA-FP-1 at 50 μg/mL, chicken erythrocytes 0.5% v/v, 1 h at room temperature
# [7] = test system: influenza A/Aichi/2/68 (H3N2); experiment: microbe, parasite or virus in culture; conditions: H3N2, MDCK, read-out: H3N2 IC50
Compound,H3N2 IC50 [1],CC50 with serum [2],CC50 without serum [2],further results
GLFGAIAGFIKKGWPGLVKG-NH2 [HA-FP-3-1],27.57 ± 0.43 µg/mL,209.35 ± 0.21 µg/mL,174.53 ± 1.90 µg/mL,
"HA-FP-O: indigenous negatively charged fusion peptide of H3 hemagglutinin HA2, 20 residues (GLFGAIAGFIENGWEGMIDG)",,,,inhibition of H5N1 pseudovirus infection (in words) [3]: a lower or no inhibition
GLFGAIAGFIKNGWKGMIKG-NH2 [HA-FP-1],5.90 ± 0.62 µg/mL,143.65 ± 0.63 µg/mL,111.70 ± 0.40 µg/mL,"antiviral activity of HA-FP-1 in presence of HA-FP-O [4]: completely abolished; IC50, infection of H5N1 influenza A pseudovirus on MDCK cells ([3]; pseudovirus (HA and NA of A/Thailand/Kan353/2004, 48 h)): 7.05 µg/mL; CC50 against MDCK [5]: 144.4 µg/mL; inhibition of agglutination of red blood cells [6]: unable to inhibit"
NC(=O)c1ncn([C@@H]2O[C@H](CO)[C@@H](O)[C@H]2O)n1 [Ribavirin],,,,IC50 [7]: 0.63 µg/mL
GLFGAIAGFIKGGWPGLVKG-NH2 [HA-FP-3],34.91 ± 4.21 µg/mL,,,
